Reference: ChEMBL document CHEMBL3137361, “MMV Box P. falciparum screening”

Test system: Plasmodium falciparum
Assay: MMV: Growth inhibition of P. falciparum cultures was quantified using a parasite lactate dehydrogenase (LDH) assay. The cultures were diluted to 0.5% parasitemea and 2% hematocrit and subjected to each twofold serial dilutions of the compounds for 72 h (DMSO final concentration, 0.25%). After 72 h, the cultures were frozen. LDH activity of P. falciparum parasites in aliquots of freeze-thawed cultures was spectrophotometrically measured and the IC50s were determined.
Format: functional, organism-based
Conditions: FCR3, 72 h

SMILES | IC50 [nM]
CC(C)(C)c1ccc2c(c1)CN(Cc1ccc(Cl)cc1)CO2 | 35.5
O=C(Nc1cccc(C(F)(F)F)c1)c1cc(Cl)ccc1O | 3620
COc1ccc(C=C2SC(=N)N(c3ccccc3OC)C2=O)cc1 | 287
OCCNc1nc(Nc2ccc(Cl)c(Cl)c2)nc2ccccc12 | 274
CC1(c2ccccc2)Nc2ccccc2-c2nc3ccccc3n21 (stereo not given) | 394
COc1ccc(C(O)(CCC(C)C)C(CN2CCOCC2)c2ccc(Cl)cc2)cc1 (stereo not given) | > 5000
COc1ccc2sc(N(Cc3cccnc3)C(=O)c3ccc(C#N)cc3)nc2c1 | > 5000
O=C(Nc1ccc(Cl)c(Cl)c1)Nc1ccc(Cl)c(Cl)c1 | 2020
CCc1ccc(Nc2cc(C)c3ccc(O)cc3n2)cc1 | 76.7
O=C1c2ccccc2C2=Nc3ccccc3SC(c3cccc(F)c3)C12 (stereo not given) | 708
OC1=C2C(=Nc3ccccc3SC2c2ccccc2)c2ccccc21 (stereo not given) | 337
CCOc1cccc2sc(N(Cc3cccnc3)C(=O)C3CCCCC3)nc12 | > 5000
O=c1nc(C=Cc2ccc(Br)cc2)oc2ccccc12 | > 5000
COCCNCC(O)Cn1c2ccc(Cl)cc2c2cc(Cl)ccc21 (stereo not given) | 277
COc1ccc(Nc2nc(NCc3ccccc3)c3ccccc3n2)cc1 | 204
CCCCCCC(O)(c1ccc(F)cc1)C(CN1CCOCC1)c1ccccc1 (stereo not given) | > 5000
c1ccc(CNc2nc(Nc3ccccc3)nc3ccccc23)cc1 | 430
O=C(Nc1nc(-c2ccccn2)cs1)c1ccccc1Br | 2720
Cc1ccc(C)c(Cn2c(N3CCC(C(=O)NCc4cccs4)CC3)nc3ccccc32)c1 | 1810
O=C(Nc1ccc(N2CCCCC2)c(Cl)c1)c1ccc(Br)o1 | 1090

SMILES | IC50 [nM]
OC(CNCc1ccccc1)Cn1c2ccccc2c2ccccc21 (stereo not given) | 717
O=c1nc(C=Cc2ccc(Cl)cc2)oc2ccccc12 | > 5000
COc1ccccc1NC1=C(N2CCCCC2)C(=O)c2ccccc2C1=O | 50
CSc1ccccc1C(=O)Nc1nc(-c2ccccn2)cs1 | 2160
CCC(O)c1ccc(Br)cc1NC(=O)c1cccc(Cl)c1 (stereo not given) | 1330
Cc1ccc(Nc2nc(-c3ccccn3)cs2)cc1 | 1430
COc1ccc(C(=O)C2CC2c2ccc(Cl)cc2)cc1 (stereo not given) | 2700
CCCCC(O)(c1ccc(Cl)cc1)C(CN1CCOCC1)c1ccc(Cl)cc1 (stereo not given) | > 5000
COc1cccc(C2(C)Nc3ccccc3-c3nc4ccccc4n32)c1 (stereo not given) | 388
CN(C)c1ccc(C(O)(c2ccc(N(C)C)cc2)c2ccc(N(C)C)cc2)cc1 [METHYLROSANILINE] | 47.3
Oc1c(CN2CCN(c3ccccc3F)CC2)cc(Br)c2cccnc12 | 771
O=C(NCC1Cc2cccc(-c3ccncc3)c2O1)c1csc2c1CCCC2 (stereo not given) | > 5000
Cc1cc(Nc2ccc(OCc3ccccc3)cc2)nc2cc(O)ccc12 | 127
FC(F)(F)c1cccc(Nc2nc(-c3ccccc3)nc3ncccc23)c1 | 905
OC(CNC1CCCCC1)Cn1c2ccc(I)cc2c2cc(I)ccc21 (stereo not given) | 137
FC(F)(F)c1cccc(Nc2nc3ccccc3nc2Nc2cccc(C(F)(F)F)c2)c1 | 1160
Brc1ccc(Nc2nc3ccccc3nc2Nc2ccc(Br)cc2)cc1 | 1560
CC(C)(C)CC(C)(C)NCC(O)COc1ccc(Cl)cc1Cl (stereo not given) | 544
OC(CNCC1CCCO1)Cn1c2ccc(Cl)cc2c2cc(Cl)ccc21 (stereo not given) | 291
CCn1nc(-c2ccc(C(=O)OC)cc2)nc2c(=O)n(C)c(=O)nc1-2 | 1510
